Source: publication PMC9736855, “Discovery of 3-Amino-1H-pyrazole-Based Kinase Inhibitors to Illuminate the Understudied PCTAIRE Family” (International Journal of Molecular Sciences, 2022)

Columns and labels:
BRD4 = target: T1, BRD4 (Homo sapiens, UniProt O60885); assay: DSF; format: binding
T1 construct: purchased in-house DSF panel (SGC Frankfurt)

TAF1 = assay: DSF; format: binding;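 also: compound tested at 10 µM with 2 µM protein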
Description: Recombinant protein kinase domains with a concentration of 2 μM were mixed with a 10 μM compound solution in DMSO, 20 mM HEPES, pH 7.5, and 500 mM NaCl. SYPRO Orange (5000×, Invitrogen) was added as a fluorescence probe (1 µl per mL). Subsequently, temperature-dependent protein unfolding profiles were measured, using the QuantStudio™ 5 realtime PCR machine (Thermo Fisher, Waltham, MA, USA). […] The temperature was raised with a step rate of 3 °C per minute. Data points were analyzed with the internal software (Thermal Shift SoftwareTM Version 1.4, Thermo Fisher) using the Boltzmann equation to determine the inflection point of the transition curve [56]. Differences in melting temperature are given as ΔTm values in °C. Measurements were performed in duplicates.

CDK2/Cyclin A2 = target: T2, CDK2/Cyclin A2 (Homo sapiens, UniProt P24941); assay: NanoBRET; format: cell-based; settings: read-out: NanoBRET EC50 ± SEM CDK2/Cyclin A2
T2 construct: Full-length kinases were obtained as plasmids cloned in frame with a terminal NanoLuc-fusion; CCNA2: 'Promega', no number; host or cells: HEK293T
Description: (§1) The assay was performed as described previously. In brief: Full-length kinases were obtained as plasmids cloned in frame with a terminal NanoLuc-fusion (Promega, Madison, WI, USA), as specified in table (Table S6). Plasmids were transfected into HEK293T cells using FuGENE HD (Promega, E2312) and proteins were allowed to express for 20h. Serially diluted inhibitor and NanoBRET Kinase Tracer (Promega) at a concentration determined previously as the KD,app (Table S5) were pipetted into white 384-well plates (Greiner 781207) using an Echo acoustic dispenser (Labcyte, San Jose, CA, USA). The corresponding protein-transfected cells were added and reseeded at a density of 2.5 × 10^5 cells/mL after trypsinization and resuspending in Opti-MEM without phenol red (Life Technologies, Carlsbad, CA, USA). The system was allowed to equilibrate for 2 h at 37 °C/5% CO2 prior to BRET measurements. To measure BRET, NanoBRET NanoGlo Substrate + Extracellular NanoLuc Inhibitor (Promega, N2540) was added as per the manufacturer’s protocol, and filtered luminescence was measured on a PHERAstar plate reader (BMG Labtech, Ortenberg, Germany) equipped with a luminescence filter pair (450 nm BP filter (donor) and 610 nm LP filter (acceptor)). Competitive displacement data were then graphed using GraphPad Prism 9 software using a normalized 3-parameter curve fit with the following equation: Y = 100/(1 + 10^(X–LogEC50)).

CDK7 = target: T3, CDK7 (Homo sapiens, UniProt P50613); assay: NanoBRET; format: cell-based; settings: read-out: NanoBRET EC50 ± SEM CDK7
T3 construct: Full-length kinases were obtained as plasmids cloned in frame with a terminal NanoLuc-fusion; host or cells: HEK293T
T3 sequence (P50613 whole entry, the tested form may be a part): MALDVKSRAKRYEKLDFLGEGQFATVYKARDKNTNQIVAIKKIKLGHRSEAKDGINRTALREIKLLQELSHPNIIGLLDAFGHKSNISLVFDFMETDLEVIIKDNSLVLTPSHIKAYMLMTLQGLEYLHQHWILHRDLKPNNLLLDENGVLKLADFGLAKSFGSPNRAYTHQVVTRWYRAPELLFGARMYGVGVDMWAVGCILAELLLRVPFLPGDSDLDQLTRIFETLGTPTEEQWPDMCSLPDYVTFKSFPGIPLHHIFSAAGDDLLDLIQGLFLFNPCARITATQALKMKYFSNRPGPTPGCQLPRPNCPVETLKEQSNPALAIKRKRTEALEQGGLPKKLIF
Description: as §1

CDK14/Cyclin Y = target: T4, CDK14/Cyclin Y (Homo sapiens, UniProt O94921); assay: NanoBRET; format: cell-based; settings: read-out: NanoBRET EC50 ± SEM CDK14/Cyclin Y
T4 construct: Full-length kinases were obtained as plasmids cloned in frame with a terminal NanoLuc-fusion; CS1810C178 (CCNY); host or cells: HEK293T
T4 sequence (O94921 whole entry, the tested form may be a part): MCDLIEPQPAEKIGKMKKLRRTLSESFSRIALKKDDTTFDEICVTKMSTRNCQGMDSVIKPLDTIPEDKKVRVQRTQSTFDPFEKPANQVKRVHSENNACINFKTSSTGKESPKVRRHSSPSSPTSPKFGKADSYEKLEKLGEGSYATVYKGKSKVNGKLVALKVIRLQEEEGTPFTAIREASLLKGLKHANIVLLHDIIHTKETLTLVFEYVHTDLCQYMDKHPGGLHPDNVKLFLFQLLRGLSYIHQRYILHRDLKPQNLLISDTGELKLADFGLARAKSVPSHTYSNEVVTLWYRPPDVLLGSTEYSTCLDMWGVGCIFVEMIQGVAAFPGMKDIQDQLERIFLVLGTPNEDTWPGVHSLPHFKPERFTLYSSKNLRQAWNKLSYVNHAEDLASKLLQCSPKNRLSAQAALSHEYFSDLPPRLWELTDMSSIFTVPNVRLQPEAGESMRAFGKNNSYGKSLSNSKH
T4 sequence (Q8ND76 2-341 partner limits assumed): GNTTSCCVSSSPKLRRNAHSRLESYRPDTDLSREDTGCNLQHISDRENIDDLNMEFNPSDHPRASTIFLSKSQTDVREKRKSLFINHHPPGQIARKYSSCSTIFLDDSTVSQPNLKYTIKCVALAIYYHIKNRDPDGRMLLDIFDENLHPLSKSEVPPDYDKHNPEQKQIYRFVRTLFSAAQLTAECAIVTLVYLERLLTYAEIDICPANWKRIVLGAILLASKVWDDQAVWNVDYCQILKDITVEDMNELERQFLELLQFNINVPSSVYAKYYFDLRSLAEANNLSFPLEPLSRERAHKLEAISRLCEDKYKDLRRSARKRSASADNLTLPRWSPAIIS
Description: as §1

CDK3/Cyclin E1 = target: T5, CDK3/Cyclin E1 (Homo sapiens, UniProt Q00526); assay: NanoBRET; format: cell-based; settings: read-out: NanoBRET EC50 ± SEM CDK3/Cyclin E1
T5 construct: Full-length kinases were obtained as plasmids cloned in frame with a terminal NanoLuc-fusion; CS1810C171 (CCNE1); host or cells: HEK293T
T5 sequence (Q00526 whole entry, the tested form may be a part): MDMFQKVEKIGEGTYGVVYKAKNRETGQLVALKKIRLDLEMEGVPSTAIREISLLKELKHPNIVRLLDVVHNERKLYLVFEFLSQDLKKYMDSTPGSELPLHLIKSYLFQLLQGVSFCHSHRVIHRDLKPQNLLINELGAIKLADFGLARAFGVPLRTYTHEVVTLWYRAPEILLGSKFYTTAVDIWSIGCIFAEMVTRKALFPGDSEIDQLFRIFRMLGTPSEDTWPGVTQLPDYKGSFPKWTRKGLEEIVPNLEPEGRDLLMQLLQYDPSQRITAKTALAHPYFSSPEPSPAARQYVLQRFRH
T5 sequence (P24864 whole entry partner, the tested form may be a part): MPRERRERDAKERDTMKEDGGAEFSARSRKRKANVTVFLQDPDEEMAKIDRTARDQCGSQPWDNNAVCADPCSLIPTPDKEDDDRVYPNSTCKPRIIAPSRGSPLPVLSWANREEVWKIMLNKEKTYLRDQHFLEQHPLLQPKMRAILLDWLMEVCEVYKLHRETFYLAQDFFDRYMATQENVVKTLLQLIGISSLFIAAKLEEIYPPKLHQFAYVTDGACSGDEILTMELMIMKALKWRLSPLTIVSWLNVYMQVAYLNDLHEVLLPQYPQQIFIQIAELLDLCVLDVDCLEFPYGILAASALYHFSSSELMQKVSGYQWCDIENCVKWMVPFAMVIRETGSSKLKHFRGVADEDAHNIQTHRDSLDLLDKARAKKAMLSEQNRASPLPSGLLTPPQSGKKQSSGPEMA
Description: as §1

CDK11A/Cyclin L2 = target: T6, CDK11A/Cyclin L2 (Homo sapiens, UniProt Q9UQ88); assay: NanoBRET; format: cell-based; settings: read-out: NanoBRET EC50 ± SEM CDK11A/Cyclin L2
T6 sequence (Q9UQ88 1-783): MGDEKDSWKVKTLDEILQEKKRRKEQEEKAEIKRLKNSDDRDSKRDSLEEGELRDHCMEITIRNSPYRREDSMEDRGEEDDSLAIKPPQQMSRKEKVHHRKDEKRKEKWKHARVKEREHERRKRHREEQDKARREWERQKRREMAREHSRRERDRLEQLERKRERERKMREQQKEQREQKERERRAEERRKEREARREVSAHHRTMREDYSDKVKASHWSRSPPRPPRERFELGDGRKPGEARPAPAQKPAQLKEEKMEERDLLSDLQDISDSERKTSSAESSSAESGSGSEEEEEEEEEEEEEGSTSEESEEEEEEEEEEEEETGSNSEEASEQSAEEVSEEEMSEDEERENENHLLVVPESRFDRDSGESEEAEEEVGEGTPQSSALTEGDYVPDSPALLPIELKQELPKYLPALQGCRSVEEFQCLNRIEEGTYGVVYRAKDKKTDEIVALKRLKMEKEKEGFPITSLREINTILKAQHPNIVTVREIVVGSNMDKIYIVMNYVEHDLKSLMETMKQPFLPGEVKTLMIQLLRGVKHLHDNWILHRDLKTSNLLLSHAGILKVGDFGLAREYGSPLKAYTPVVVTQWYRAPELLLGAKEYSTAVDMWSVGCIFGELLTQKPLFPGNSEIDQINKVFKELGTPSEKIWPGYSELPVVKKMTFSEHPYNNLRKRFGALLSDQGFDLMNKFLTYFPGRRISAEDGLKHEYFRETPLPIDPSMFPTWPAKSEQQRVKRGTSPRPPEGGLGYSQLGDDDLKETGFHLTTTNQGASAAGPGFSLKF
T6 sequence (Q96S94 1-520 partner): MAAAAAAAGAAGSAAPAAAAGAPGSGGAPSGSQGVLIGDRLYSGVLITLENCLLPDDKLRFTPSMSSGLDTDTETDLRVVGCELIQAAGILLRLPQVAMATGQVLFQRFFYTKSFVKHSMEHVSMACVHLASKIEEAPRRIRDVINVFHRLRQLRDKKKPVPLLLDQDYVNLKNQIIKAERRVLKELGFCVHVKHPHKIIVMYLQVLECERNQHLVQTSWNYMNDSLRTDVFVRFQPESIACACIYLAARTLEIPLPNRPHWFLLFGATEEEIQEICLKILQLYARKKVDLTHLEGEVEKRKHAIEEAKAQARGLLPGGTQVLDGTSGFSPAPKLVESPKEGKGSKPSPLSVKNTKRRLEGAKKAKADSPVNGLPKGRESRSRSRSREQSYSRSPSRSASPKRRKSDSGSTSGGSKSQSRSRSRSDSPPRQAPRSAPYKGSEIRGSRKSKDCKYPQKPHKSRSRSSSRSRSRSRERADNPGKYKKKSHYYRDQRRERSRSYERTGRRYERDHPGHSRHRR
Description: as §1

CDK4/Cyclin D1 = target: T7, CDK4/Cyclin D1 (Homo sapiens, UniProt P11802); assay: NanoBRET; format: cell-based; settings: read-out: NanoBRET EC50 ± SEM CDK4/Cyclin D1
T7 construct: Full-length kinases were obtained as plasmids cloned in frame with a terminal NanoLuc-fusion; CS1810C118 (CCND1); host or cells: HEK293T
T7 sequence (P11802 whole entry, the tested form may be a part): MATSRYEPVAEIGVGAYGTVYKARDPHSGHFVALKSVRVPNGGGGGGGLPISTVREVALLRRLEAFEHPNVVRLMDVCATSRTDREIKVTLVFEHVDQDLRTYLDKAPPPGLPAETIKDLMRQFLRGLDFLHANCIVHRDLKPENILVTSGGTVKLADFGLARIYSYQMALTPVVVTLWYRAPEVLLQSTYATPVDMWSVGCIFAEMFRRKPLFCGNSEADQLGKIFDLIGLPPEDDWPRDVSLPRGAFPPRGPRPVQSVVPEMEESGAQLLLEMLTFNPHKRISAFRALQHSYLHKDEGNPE
T7 sequence (P24385 whole entry partner, the tested form may be a part): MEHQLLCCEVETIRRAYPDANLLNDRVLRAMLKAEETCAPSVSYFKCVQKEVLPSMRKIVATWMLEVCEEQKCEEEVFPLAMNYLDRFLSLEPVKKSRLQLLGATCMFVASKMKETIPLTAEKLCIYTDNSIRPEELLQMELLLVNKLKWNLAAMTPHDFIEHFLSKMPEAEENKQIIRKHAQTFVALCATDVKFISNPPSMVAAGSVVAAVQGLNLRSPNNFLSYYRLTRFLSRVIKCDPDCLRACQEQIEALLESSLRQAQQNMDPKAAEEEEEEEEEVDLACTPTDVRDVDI
Description: as §1

CDK17/Cyclin Y = CDK17/Cyclin Y (Homo sapiens, UniProt Q00537); assay: NanoBRET; format: cell-based; settings: read-out: NanoBRET EC50 ± SEM CDK17/Cyclin Y
CDK17/Cyclin Y, sequence (Q00537 whole entry): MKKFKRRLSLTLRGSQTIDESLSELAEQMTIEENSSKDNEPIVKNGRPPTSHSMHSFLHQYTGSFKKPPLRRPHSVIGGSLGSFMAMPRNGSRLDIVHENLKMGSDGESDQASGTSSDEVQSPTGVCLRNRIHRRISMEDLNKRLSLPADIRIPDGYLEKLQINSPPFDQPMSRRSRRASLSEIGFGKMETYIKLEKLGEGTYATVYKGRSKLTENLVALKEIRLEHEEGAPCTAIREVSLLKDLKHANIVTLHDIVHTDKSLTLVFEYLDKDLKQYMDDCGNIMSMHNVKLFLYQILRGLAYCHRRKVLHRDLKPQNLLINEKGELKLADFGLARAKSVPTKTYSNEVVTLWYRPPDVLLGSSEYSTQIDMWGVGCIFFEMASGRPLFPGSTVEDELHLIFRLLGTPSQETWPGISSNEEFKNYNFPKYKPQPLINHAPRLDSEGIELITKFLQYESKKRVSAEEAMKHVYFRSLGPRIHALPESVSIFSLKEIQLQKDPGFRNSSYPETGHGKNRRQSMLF
CDK17/Cyclin Y, sequence (Q8ND76 2-341 partner limits assumed): as the sequence (Q8ND76 2-341 partner limits assumed) above
Description: as §1

CDK1/Cyclin E1 = target: T8, CDK1/Cyclin E1 (Homo sapiens, UniProt P06493); assay: NanoBRET; format: cell-based; settings: read-out: NanoBRET EC50 ± SEM CDK1/Cyclin E1
T8 construct: Full-length kinases were obtained as plasmids cloned in frame with a terminal NanoLuc-fusion; CS1810C171 (CCNE1); host or cells: HEK293T
T8 sequence (P06493 whole entry, the tested form may be a part): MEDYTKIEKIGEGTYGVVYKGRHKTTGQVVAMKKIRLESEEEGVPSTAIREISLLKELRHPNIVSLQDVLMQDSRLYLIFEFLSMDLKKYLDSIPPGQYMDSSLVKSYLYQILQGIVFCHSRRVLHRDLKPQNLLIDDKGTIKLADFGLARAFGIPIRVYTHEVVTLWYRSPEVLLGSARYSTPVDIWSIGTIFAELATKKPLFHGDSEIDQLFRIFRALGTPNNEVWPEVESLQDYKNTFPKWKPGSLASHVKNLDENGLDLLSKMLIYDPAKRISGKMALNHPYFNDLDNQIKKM
Description: as §1

Structure (SMILES) | ΔTm BRD4 (BRD4) [°C] | ΔTm TAF1 (TAF1) [°C] | EC50 (CDK2/Cyclin A2) [µM] | EC50 (CDK7) [µM] | EC50 (CDK14/Cyclin Y) [µM] | EC50 (CDK3/Cyclin E1) [µM] | EC50 (CDK11A/Cyclin L2) [µM] | EC50 (CDK4/Cyclin D1) [µM] | EC50 (CDK17/Cyclin Y) [µM] | EC50 (CDK1/Cyclin E1) [µM]
CC(C)OC(=O)c1cc(Nc2ccnc(NCc3ccc(NC(=O)OC(C)(C)C)cc3)n2)n[nH]1 [42d, isopropyl 3-((2-((4-((tert-butoxycarbonyl)amino)benzyl)amino)pyrimidin-4-yl)amino)-1H-pyrazole-5-carboxylate] | -2.1 | 0.5 | 2.84 ± 1.35 | 1.14 ± 0.658 | 0.0882 ± 0.0488 | 1.27 ± 0.522 | 2.09 ± 0.599 | 1.6 ± 0.409 | 0.0337 ± 0.0025 | 0.2 ± 0.0428
COC(=O)c1cc(Nc2ccnc(NCc3ccc(NC(=O)OC(C)(C)C)cc3)n2)[nH]n1 [21i, methyl 5-((2-((4-((tert-butoxycarbonyl)amino)benzyl)amino)pyrimidin-4-yl)amino)-1H-pyrazole-3-carboxylate] | 1.0 | 0.2 | 11.7 ± 2.33 | 10.4 ± 4.77 | 1.37 ± 0.374 | 12.4 ± 4.61 | 20.5 ± 11.8 | 10.9 ± 3.92 | 0.673 | 6.42 ± 3.46
CC(C)(C)OC(=O)Nc1ccc(CNc2nccc(Nc3cc(C(=O)OC(C)(C)C)[nH]n3)n2)cc1 [43d, tert-butyl 3-((2-((4-((tert-butoxycarbonyl)amino)benzyl)amino)pyrimidin-4-yl)amino)-1H-pyrazole-5-carboxylate] | -1.5 | 0.0 | 1.52 ± 0.449 | 1.46 ± 0.552 | 0.0721 | 2.75 ± 0.959 | 3.46 ± 1.84 | 2.14 ± 0.75 | 0.0212 | 0.582
COC(=O)c1cc(Nc2ccnc(NCCOCCNC(=O)OC(C)(C)C)n2)[nH]n1 [21d, methyl 5-((2-((2-(2-((tert-butoxycarbonyl)amino)ethoxy)ethyl)amino)pyrimidin-4-yl)amino)-1H-pyrazole-3-carboxylate] | 0.7 | 0.0 |  |  |  |  |  |  |  | 
N#CCc1ccc(Nc2nccc(Nc3cc(C4CC4)[nH]n3)n2)cc1 [compound 1, reference compound] | 1.3 | 0.1 | 0.0281 ± 0.0075 | 0.103 ± 0.0432 | 0.0337 ± 0.0082 | 0.0118 ± 0.0045 | 0.76 ± 0.46 | 0.0936 ± 0.0236 | 0.0099 ± 0.0012 | 0.0052 ± 0.0025
